pIC50: −log10 of the molar value. Like-named read-outs stand apart in the source and are kept apart here.
Assays:
EGFR = EGFR (Homo sapiens (Human), UniProt P00533); assay: EGFR binding affinity (TR-FRET, LanthaScreen); conditions: 5 h incubation
Protocol: EGFR binding affinity was determined using a time-resolved fluorescence resonance energy transfer (TR-FRET) methodology. 2.5 nM Recombinant EGFR, varying concentrations of inhibitor, 2 nM LanthaScreen™ Eu anti-GST Antibody and 3 nM Kinase Tracer 199 was incubated in 1× LanthaScreen™ Kinase Buffer A for 5 h. Recombinant EGFR and all LanthaScreen™ components were purchased from Invitrogen. Measurements were performed in a reaction volume of 30 μL using half-area 96-well assay plates. The TR-FRET signal was read on a plate reader with an excitation wavelength of 340 nm and detection wavelengths of 615 and 665 nm. Binding affinity was determined for each compound by measuring TR-FRET signal at various concentrations of compound and plotting the relative fluorescence units against the inhibitor concentration to estimate the IC50 from log [Inhibitor] vs response using the Variable Slope model in Graphpad prism from Graphpad software (SanDiego, Calif.).

BTK^WT = BTK^WT (Homo sapiens (Human), UniProt Q06187); assay: BTK^WT binding affinity (TR-FRET, LanthaScreen)
BTK^WT, sequence (Q06187 whole entry): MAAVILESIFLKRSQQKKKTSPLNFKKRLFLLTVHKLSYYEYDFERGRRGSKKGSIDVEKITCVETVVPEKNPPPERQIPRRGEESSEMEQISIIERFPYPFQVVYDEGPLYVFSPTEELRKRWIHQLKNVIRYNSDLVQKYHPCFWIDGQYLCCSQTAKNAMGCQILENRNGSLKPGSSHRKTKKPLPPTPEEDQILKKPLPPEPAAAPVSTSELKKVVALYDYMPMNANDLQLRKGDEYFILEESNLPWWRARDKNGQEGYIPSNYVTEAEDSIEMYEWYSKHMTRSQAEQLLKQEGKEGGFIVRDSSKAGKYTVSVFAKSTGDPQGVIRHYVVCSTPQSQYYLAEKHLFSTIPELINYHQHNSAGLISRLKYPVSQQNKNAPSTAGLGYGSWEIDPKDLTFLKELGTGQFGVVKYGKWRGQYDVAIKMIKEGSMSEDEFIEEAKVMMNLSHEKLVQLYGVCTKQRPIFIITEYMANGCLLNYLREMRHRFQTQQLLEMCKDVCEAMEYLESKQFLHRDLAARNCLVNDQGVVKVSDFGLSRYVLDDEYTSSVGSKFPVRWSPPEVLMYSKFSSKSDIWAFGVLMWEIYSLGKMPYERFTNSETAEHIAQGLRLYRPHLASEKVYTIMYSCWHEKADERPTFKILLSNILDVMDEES
Protocol: BTK^WT binding affinity of each compound tested was determined using a time-resolved fluorescence resonance energy transfer (TR-FRET) methodology. 2.5 nM Recombinant BTK^WT kinase, varying concentrations of inhibitor, 2 nM LanthaScreen™ Eu anti-His Antibody and 15 nM Kinase Tracer 236 was incubated in 1× LanthaScreen™ Kinase Buffer A for 5 h. Recombinant BTK kinase and all LanthaScreen™ components were purchased from Invitrogen. Measurements were performed in a reaction volume of 30 μL using half-area 96-well assay plates. The TR-FRET signal was read on a plate reader with an excitation wavelength of 340 nm and detection wavelengths of 615 and 665 nm. Binding affinity was determined for each compound by measuring TR-FRET signal at various concentrations of compound and plotting the relative fluorescence units against the inhibitor concentration to estimate the IC50 from log [Inhibitor] vs response using the Variable Slope model in Graphpad prism from Graphpad software (SanDiego, Calif.).

BTK^C481S = BTK^C481S (Homo sapiens (Human), UniProt Q06187, C481S); assay: BTK^C481S binding affinity (TR-FRET, LanthaScreen); conditions: 5 h incubation
BTK^C481S, sequence (Q06187 whole entry C481S): as the sequence (Q06187 whole entry) above, with C481S counted along it
Protocol: BTK^C481S binding affinity of each compound tested was determined using a time-resolved fluorescence resonance energy transfer (TR-FRET) methodology. 5 nM Recombinant […] kinase, varying concentrations of inhibitor, 2 nM LanthaScreen™ Eu anti-His Antibody and 30 nM Kinase Tracer 236 was incubated in 1× LanthaScreen™ Kinase Buffer A for 5 h. Recombinant BTK^C481S kinase was purchased from SignalChem and all LanthaScreen™ components were purchased from Invitrogen. Measurements were performed in a reaction volume of 30 μL using half-area 96-well assay plates. The TR-FRET signal was read on a plate reader with an excitation wavelength of 340 nm and detection wavelengths of 615 and 665 nm. Binding affinity was determined for each compound by measuring TR-FRET signal at various concentrations of compound and plotting the relative fluorescence units against the inhibitor concentration to estimate the IC50 from log [Inhibitor] vs response using the Variable Slope model in Graphpad prism from Graphpad software (SanDiego, Calif.).

[1] = TR-FRET binding, 5 h incubation, read-out: BTK^WT IC50

EGFR, sequence (P00533 25-1210): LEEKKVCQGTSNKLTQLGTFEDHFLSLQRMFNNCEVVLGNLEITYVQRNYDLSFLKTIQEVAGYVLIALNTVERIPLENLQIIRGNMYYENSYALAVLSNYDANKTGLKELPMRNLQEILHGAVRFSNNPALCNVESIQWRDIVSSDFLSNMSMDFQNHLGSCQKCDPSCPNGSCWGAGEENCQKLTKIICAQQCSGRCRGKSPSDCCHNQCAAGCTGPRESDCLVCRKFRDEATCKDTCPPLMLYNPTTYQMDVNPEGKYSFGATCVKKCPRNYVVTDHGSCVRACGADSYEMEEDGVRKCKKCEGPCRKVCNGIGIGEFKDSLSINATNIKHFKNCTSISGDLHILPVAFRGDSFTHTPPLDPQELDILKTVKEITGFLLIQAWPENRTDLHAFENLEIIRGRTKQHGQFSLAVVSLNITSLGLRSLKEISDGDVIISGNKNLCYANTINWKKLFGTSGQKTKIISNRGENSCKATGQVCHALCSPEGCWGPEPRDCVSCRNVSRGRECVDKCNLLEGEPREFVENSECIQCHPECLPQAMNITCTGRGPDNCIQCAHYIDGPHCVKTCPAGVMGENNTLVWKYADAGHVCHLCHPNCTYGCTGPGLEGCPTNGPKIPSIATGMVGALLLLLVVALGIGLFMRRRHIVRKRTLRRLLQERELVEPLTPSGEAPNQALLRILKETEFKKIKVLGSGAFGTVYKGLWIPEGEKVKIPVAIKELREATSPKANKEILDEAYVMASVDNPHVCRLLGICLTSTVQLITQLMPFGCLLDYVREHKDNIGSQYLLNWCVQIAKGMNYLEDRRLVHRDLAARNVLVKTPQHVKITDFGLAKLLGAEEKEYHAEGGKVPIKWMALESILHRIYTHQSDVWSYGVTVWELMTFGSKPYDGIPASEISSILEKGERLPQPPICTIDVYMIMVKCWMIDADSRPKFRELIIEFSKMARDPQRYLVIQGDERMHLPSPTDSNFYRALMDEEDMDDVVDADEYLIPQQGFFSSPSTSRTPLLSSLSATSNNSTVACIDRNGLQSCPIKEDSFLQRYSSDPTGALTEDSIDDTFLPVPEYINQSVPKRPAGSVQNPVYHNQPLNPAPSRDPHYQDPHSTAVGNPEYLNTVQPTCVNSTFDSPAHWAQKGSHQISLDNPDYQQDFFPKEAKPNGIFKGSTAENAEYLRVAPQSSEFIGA

| pIC50 (EGFR) | pIC50 (BTK^WT; [1]) | pIC50 (BTK^C481S) | pIC50 (BTK^WT; Table 6, numeric values, read-out: BTK Binding IC50) | Structure (SMILES) |
| --- | --- | --- | --- | --- |
| 5.00 to 6.00 |  |  |  | N#Cc1cccc(C(=O)NCc2ccc(-c3nn(C4CCCC4)c4ncnc(N)c34)cc2)c1 [Example 20, N-[[4-(4-amino-1-cyclopentyl-pyrazolo[3,4-d]pyrimidin-3-yl)phenyl]methyl]-3-cyano-benzamide] |
|  | 5.00 to 6.00 |  |  | Nc1ncnc2c1c(-c1ccc(CNC(=O)c3cc4ccccc4s3)cc1)nn2C1CCCC1 [Example 84, N-[[4-(4-amino-1-cyclopentyl-pyrazolo[3,4-d]pyrimidin-3-yl)phenyl]methyl]benzothiophene-2-carboxamide] |
| < 5.00 | < 5.00 |  |  | Nc1ncnc2c1c(-c1ccc(CNC(=O)c3nc4ccccc4s3)cc1)nn2C1CCCC1 [Example 82, N-[[4-(4-amino-1-cyclopentyl-pyrazolo[3,4-d]pyrimidin-3-yl)phenyl]methyl]-1,3-benzothiazole-2-carboxamide] |
|  | ≥ 8.00 | ≥ 8.00 |  | COc1ccccc1C(=O)NCc1ccc(-c2nn([C@H]3CC[C@@H](C(=O)N(C)C)CC3)c3ncnc(N)c23)cc1 (single isomer, unassigned; isomer 2) [33-isomer 2] |
| 5.00 to 6.00 |  |  |  | Nc1ncnc2c1c(-c1ccc(CNC(=O)c3cc4ccccc4[nH]3)cc1)nn2C1CCCC1 [Example 88, N-[[4-(4-amino-1-cyclopentyl-pyrazolo[3,4-d]pyrimidin-3-yl)phenyl]methyl]-1H-indole-2-carboxamide] |
|  | ≥ 8.00 | ≥ 8.00 | 8.92 | COc1ccccc1C(=O)NCc1ccc(-c2nn([C@@H]3CCc4ccccc43)c3ncnc(N)c23)cc1 [Example 56, N-[(4-{4-amino-1-[(1R)-2,3-dihydro-1H-inden-1-yl]-1H-pyrazolo[3,4-d]pyrimidin-3-yl}phenyl)methyl]-2-methoxybenzamide] |
| 6.00 to 7.00 | 6.00 to 7.00 |  |  | Nc1ncnc2c1c(-c1ccc(CNC(=O)c3ccccc3OC(F)(F)F)cc1)nn2C1CCCC1 [Example 6, N-[[4-(4-Amino-1-cyclopentyl-pyrazolo[3,4-d]pyrimidin-3-yl)phenyl]methyl]-2-(trifluoromethoxy)benzamide] |
| 5.00 to 6.00 |  |  |  | COc1c(C)cccc1C(=O)NCc1ccc(-c2nn(C3CCCC3)c3ncnc(N)c23)cc1 [Example 22, N-[[4-(4-amino-1-cyclopentyl-pyrazolo[3,4-d]pyrimidin-3-yl)phenyl]methyl]-2-methoxy-3-methyl-benzamide] |
|  | ≥ 8.00 | ≥ 8.00 |  | COc1ccccc1C(=O)NCc1ccc(-c2nn(C3CCC4(CC3)OCCO4)c3ncnc(N)c23)cc1 [Example 19, N-[[4-[4-amino-1-(1,4-dioxaspiro[4.5]decan-8-yl)pyrazolo[3,4-d]pyrimidin-3-yl]phenyl]methyl]-2-methoxy-benzamide] |
|  | 5.00 to 6.00 |  |  | Nc1ncnc2c1c(-c1ccc(CNC(=O)c3ccc4ccccc4n3)cc1)nn2C1CCCC1 [Example 85, N-[[4-(4-amino-1-cyclopentyl-pyrazolo[3,4-d]pyrimidin-3-yl)phenyl]methyl]quinoline-2-carboxamide] |
| 5.00 to 6.00 |  |  |  | COc1ccccc1C(=O)N(C)Cc1ccc(-c2nn(C3CCCC3)c3ncnc(N)c23)cc1 [Example 17, N-[[4-(4-Amino-1-cyclopentyl-pyrazolo[3,4-d]pyrimidin-3-yl)phenyl]methyl]-2-methoxy-N-methyl-benzamide] |
|  | 5.00 to 6.00 |  |  | Nc1ncnc2c1c(-c1ccc(CNC(=O)c3cccc4ncoc34)cc1)nn2C1CCCC1 [Example 87, N-[[4-(4-amino-1-cyclopentyl-pyrazolo[3,4-d]pyrimidin-3-yl)phenyl]methyl]-1,3-benzoxazole-7-carboxamide] |
|  | < 5.00 |  |  | Nc1ncnc2c1c(-c1ccc(CNC(=O)c3cc4ccccc4o3)cc1)nn2C1CCCC1 [Example 83, N-[[4-(4-amino-1-cyclopentyl-pyrazolo[3,4-d]pyrimidin-3-yl)phenyl]methyl]benzofuran-2-carboxamide] |
|  | 6.00 to 7.00 |  |  | Nc1ncnc2c1c(-c1ccc(CNC(=O)c3ccc4ccccc4c3)cc1)nn2C1CCCC1 [Example 72, N-[[4-(4-amino-1-cyclopentyl-pyrazolo[3,4-d]pyrimidin-3-yl)phenyl]methyl]naphthalene-2-carboxamide] |

Reference: patent US10399989B2, “Pyrazolopyrimidine derivatives as BTK inhibitors for the treatment of cancer” (Loxo Oncology, Inc., priority 2016, dated 2019)
